In PubChem BioAssay (NCI) one finds TGI data, which are given here for seven compounds.

SMILES strings stand for the structures.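 Interpolation was linear, between the two tested concentrations surrounding the appropriate level; five concentrations were tested over 48 hours in 96-well plates. TGI: total growth inhibition.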

Some test systems named below: EKVX NSCLC; HL-60(TB) leukemia; SNB-75 CNS; SF-268 CNS; PC-3 prostate; MCF7 breast; RPMI-8226 leukemia; MDA-N; SK-MEL-2 melanoma; 786-0 renal; LOX IMVI melanoma; ACHN renal; SK-MEL-28 melanoma; SK-OV-3 ovarian; HOP-62 NSCLC; SF-539 CNS; TK-10 renal; CCRF-CEM leukemia; NCI-H226 lung; COLO 205 colon.
What all share (experiment): DTP human tumour cell line panel, 48 h

The TGI is the concentration giving total growth inhibition. Higher therefore signals lower sensitivity of the cells. For the compound `C=C(C)[C@H]1CC(=O)[C@@]2(C)C[C@H]3O[C@]3(C)CC/C=C(\C)CC[C@H]12`, the TGI in the experiment on EKVX NSCLC was greater than 100 µM; in the experiment with HL-60(TB) leukemia, 75.2 µM; with SNB-75 CNS it was greater than 100 µM; in the experiment on SF-268 CNS, greater than 100 µM; in the experiment with PC-3 prostate, 86.2 µM; with MCF7 breast, 57.3 µM. For the same compound, the TGI is 91.9 µM in the experiment on RPMI-8226 leukemia; greater than 100 µM in the experiment on MDA-N; greater than 100 µM in the experiment with SK-MEL-2 melanoma; greater than 100 µM with 786-0 renal; greater than 100 µM in the experiment on LOX IMVI melanoma; greater than 100 µM in the experiment on ACHN renal. Further, the TGI is greater than 100 µM in the experiment with SK-MEL-28 melanoma; greater than 100 µM with SK-OV-3 ovarian; greater than 100 µM with HOP-62 NSCLC; greater than 100 µM in the experiment with SF-539 CNS; 71.1 µM in the experiment on TK-10 renal; greater than 100 µM in the experiment on CCRF-CEM leukemia. Also, the TGI in the experiment with NCI-H226 lung is greater than 100 µM; with COLO 205 colon, 44.4 µM.
For the compound `Nc1ccc(C2SCC(=O)N2NS(=O)(=O)c2cccc(C(=O)O)c2)cc1` (stereo not given), the TGI in the experiment on EKVX NSCLC, in the experiment on HL-60(TB) leukemia, in the experiment on SNB-75 CNS, in the experiment on SF-268 CNS, in the experiment with PC-3 prostate and in the experiment on MCF7 breast was greater than 100 µM throughout. Also, the TGI with RPMI-8226 leukemia, in the experiment on MDA-N, with SK-MEL-2 melanoma, in the experiment with 786-0 renal, in the experiment with LOX IMVI melanoma and with ACHN renal was greater than 100 µM in each case. The TGI in the experiment with SK-MEL-28 melanoma, in the experiment with SK-OV-3 ovarian, with HOP-62 NSCLC, in the experiment with SF-539 CNS, in the experiment on TK-10 renal and with CCRF-CEM leukemia was greater than 100 µM each time. In addition, the TGI in the experiment on NCI-H226 lung and in the experiment with COLO 205 colon was greater than 100 µM in each case.
Take `NC1NCCC(=O)N1CCc1c[nH]c2ccccc12` (stereo not given): the total growth inhibition concentration (TGI) was 75.5 µM with EKVX NSCLC; 44.7 µM in the experiment on HL-60(TB) leukemia; 22.9 µM in the experiment with SNB-75 CNS; 46.4 µM in the experiment with SF-268 CNS; 44.1 µM in the experiment with PC-3 prostate; 29.2 µM in the experiment with MCF7 breast. In addition, the TGI was found to be 60.3 µM with RPMI-8226 leukemia; 34.3 µM in the experiment with MDA-N; 35.5 µM in the experiment with SK-MEL-2 melanoma; 37.6 µM in the experiment with 786-0 renal; 30.2 µM in the experiment on LOX IMVI melanoma; 55.5 µM in the experiment with ACHN renal. Besides, the TGI in the experiment on SK-MEL-28 melanoma was 34.9 µM; with SK-OV-3 ovarian it was greater than 100 µM; with HOP-62 NSCLC, 43.2 µM; with SF-539 CNS, 31.5 µM; in the experiment with TK-10 renal, 51.7 µM; in the experiment with CCRF-CEM leukemia it was 51.9 µM. Also, the TGI in the experiment with NCI-H226 lung amounted to 66.3 µM; in the experiment on COLO 205 colon, 32.5 µM.
As to `CC(C)c1c(O[Si](C(C)C)(C(C)C)C(C)C)cc2c(c1O)CC[C@H]1C(C)(C)CCC[C@]21C`, the TGI in the experiment on EKVX NSCLC is greater than 100 µM; in the experiment with HL-60(TB) leukemia, 60.4 µM; in the experiment with SNB-75 CNS, greater than 100 µM; in the experiment on SF-268 CNS, greater than 100 µM; in the experiment on PC-3 prostate, greater than 100 µM; in the experiment on MCF7 breast, greater than 100 µM. In addition, the TGI in the experiment on RPMI-8226 leukemia, with MDA-N, in the experiment on SK-MEL-2 melanoma, in the experiment with 786-0 renal, in the experiment on LOX IMVI melanoma and with ACHN renal was greater than 100 µM each time. Also, the TGI in the experiment on SK-MEL-28 melanoma, in the experiment with SK-OV-3 ovarian, with HOP-62 NSCLC, with SF-539 CNS, in the experiment with TK-10 renal and in the experiment with CCRF-CEM leukemia was greater than 100 µM in each case. Further, the TGI in the experiment with NCI-H226 lung and in the experiment on COLO 205 colon was greater than 100 µM each time.
As for `Cn1c(=S)[nH]c(N)c(Cc2ccccc2)c1=O`, the TGI with EKVX NSCLC, in the experiment on HL-60(TB) leukemia, in the experiment on SNB-75 CNS, in the experiment with SF-268 CNS, in the experiment with PC-3 prostate and in the experiment with MCF7 breast was greater than 100 µM in each case. For the same compound, the concentration for total growth inhibition (TGI) in the experiment with RPMI-8226 leukemia, with MDA-N, in the experiment with SK-MEL-2 melanoma, with 786-0 renal, in the experiment on LOX IMVI melanoma and with ACHN renal was greater than 100 µM each time. The TGI in the experiment on SK-MEL-28 melanoma, in the experiment on SK-OV-3 ovarian, in the experiment on HOP-62 NSCLC, in the experiment on SF-539 CNS, with TK-10 renal and in the experiment on CCRF-CEM leukemia was greater than 100 µM in each case. In addition, the TGI in the experiment on NCI-H226 lung and in the experiment with COLO 205 colon was greater than 100 µM in each case.
`O=C(/C=C/c1cccc(Br)c1)N1CCN(CCOC(c2ccccc2)c2ccccc2)CC1`: the TGI with EKVX NSCLC was greater than 100 µM; with HL-60(TB) leukemia it was 46.6 µM; with SNB-75 CNS it was greater than 100 µM; in the experiment with SF-268 CNS it was greater than 100 µM; in the experiment on PC-3 prostate it was greater than 100 µM; in the experiment on MCF7 breast it was greater than 100 µM. In addition, the TGI in the experiment on RPMI-8226 leukemia is 36.2 µM; in the experiment with MDA-N, greater than 100 µM; in the experiment with SK-MEL-2 melanoma, greater than 100 µM; with 786-0 renal it was greater than 100 µM; in the experiment on LOX IMVI melanoma, 54.8 µM; with ACHN renal, greater than 100 µM. For the same compound, the TGI is greater than 100 µM in the experiment on SK-MEL-28 melanoma; greater than 100 µM in the experiment on SK-OV-3 ovarian; greater than 100 µM in the experiment on HOP-62 NSCLC; 39.1 µM with SF-539 CNS; greater than 100 µM with TK-10 renal; 39.8 µM in the experiment with CCRF-CEM leukemia. In addition, the TGI was greater than 100 µM in the experiment with NCI-H226 lung and 57.4 µM in the experiment with COLO 205 colon.
Take `CN(Cc1cnc2nc(N)nc(N)c2n1)c1ccc(C(=O)NCCCC(=O)O)cc1`: the TGI with EKVX NSCLC, in the experiment on HL-60(TB) leukemia, in the experiment with SNB-75 CNS, in the experiment on SF-268 CNS, with PC-3 prostate and in the experiment on MCF7 breast was greater than 100 µM in each case. Further, the TGI is greater than 100 µM in the experiment on RPMI-8226 leukemia; greater than 100 µM in the experiment on MDA-N; greater than 100 µM in the experiment on SK-MEL-2 melanoma; greater than 100 µM in the experiment on 786-0 renal; greater than 100 µM in the experiment on LOX IMVI melanoma; greater than 71.2 µM in the experiment on ACHN renal. Moreover, the TGI with SK-MEL-28 melanoma, with SK-OV-3 ovarian, in the experiment with HOP-62 NSCLC, in the experiment on SF-539 CNS, with TK-10 renal and with CCRF-CEM leukemia was greater than 100 µM in each case. The total growth inhibition concentration (TGI) in the experiment with NCI-H226 lung and in the experiment with COLO 205 colon was greater than 100 µM each time.
